Experimental data taken from patent US20220378706A1, “PHARMACEUTICAL COMPOSITION COMPRISING PDE9 INHIBITOR” (Eisai R&D Management Co., Ltd., priority 2017, published 2022).
Where two headings read alike, the source gives them in different places.

What was measured:
[1] = tested on: cGMP in the cerebrospinal fluid; assay: CSF cGMP elevation in rats; format: in vivo; settings: rat, scopolamine
Method: cGMP in the cerebrospinal fluid (hereinafter referred to as “CSF cGMP”) elevation in each sample was measured according to the method described in WO2013/051639.

CSF cGMP = assay: Single dose clinical study Part B: CSF cGMP pharmacodynamics; format: in vivo, human; settings: for CSF cGMP Amax Mean (SD) / CSF cGMP TAmax Median / CSF cGMP ΔAUAC(0-30 h) Mean (SD): healthy adults Part B, fasted
Method: (§1) After the Screening Period, subjects returned to the clinic on […] for Baseline procedures. […] Serial CSF sampling via the lumbar catheter commenced on Day 1, after an overnight fast. CSF samples were collected on Day 1 over a period of 3 hours predose. Subjects were then administered study drug, and serial CSF sampling for 30 hours postdose was performed to determine CSF cGMP and CSF Compound A concentrations. Blood samples for plasma Compound A PK were collected at the same time points as CSF sampling. Safety evaluations were also performed.
Serial CSF samples were collected from the lumbar catheter for analysis of concentrations of cyclic […] monophosphate (cGMP) at −3, −2, −1 hours, predose (0 hour), and postdose at 1, 2, 3, 4, 5, 6, 8, 10, 12, 14, 16, 18, 24, and 30 hours.
(§2) Plasma, urine and CSF concentrations of Compound A were measured using validated liquid chromatography mass spectrometry/mass spectrometry (LC MS/MS) assay methods. CSF concentrations of cGMP were measured using a validated LC-MS/MS assay method.
The primary PD measure was CSF cGMP. The following PD parameters were reported for CSF cGMP:
Plasma Compound A concentrations pooled from all cohorts of the study were subjected to population PK analysis using nonlinear mixed effects modelling. The effect of covariates, such as baseline demographics/characteristics (eg, body weight, age, gender, ethnicity, etc) on the PK of Compound A were explored. The individual posterior estimates of PK parameters were then used to generate individual PK profiles of Compound A, which were used in subsequent PK/PD analysis of the percent change from baseline in CSF cGMP concentrations.

[2] = Single dose clinical study Parts A and C: urine Compound A pharmacokinetics; format: in vivo, human; settings: for CL renal: human, po
Method: Urine Compound A concentrations were analyzed predose and up to 96 hours postdose.
as §2
The following PK parameters were calculated for Compound A: […]

[3] = High precision QTcF analysis using Holter ECG recording; format: in vivo, human; settings: at the Cmax at the highest doses of 800 to 1200 mg, healthy subjects
Method: In addition, high precision QTcF analysis using Holter ECG recording was conducted in Parts A, C, and D during Day −1 and Day 1, to allow more rigorous assessments of possible changes in QTcF intervals. A central ECG laboratory was used to extract ECG recordings from the Holter device.

PDE9 = PDE9 (Homo sapiens, UniProt O76083); settings: WO2013/051369, WO2014/163147; cited from earlier work
[4] = Single dose clinical study Part B: CSF Compound A pharmacokinetics; format: in vivo; settings: human
Method: as §1
Concentrations of Compound A in CSF were analyzed in serial CSF samples collected at predose and postdose at 1, 2, 3, 4, 5, 6, 8, 10, 12, 14, 16, 18, 24, and 30 hours.
as §2
The following PK parameters were derived by noncompartmental analysis using CSF Compound A concentrations: […]

[5] = Elderly subjects Part C, single oral 100 mg
[6] = healthy adults Part A, single oral 10 mg
[7] = healthy adults Part A, single oral 25 mg
[8] = healthy adults Part A, single oral 50 mg
[9] = healthy adults Part A, single oral 100 mg
[10] = healthy adults Part A, single oral 200 mg
[11] = healthy adults Part A, single oral 400 mg
[12] = healthy adults Part A, single oral 800 mg
[13] = healthy adults Part A, single oral 1200 mg

Chain of PDE9 (O76083 whole entry): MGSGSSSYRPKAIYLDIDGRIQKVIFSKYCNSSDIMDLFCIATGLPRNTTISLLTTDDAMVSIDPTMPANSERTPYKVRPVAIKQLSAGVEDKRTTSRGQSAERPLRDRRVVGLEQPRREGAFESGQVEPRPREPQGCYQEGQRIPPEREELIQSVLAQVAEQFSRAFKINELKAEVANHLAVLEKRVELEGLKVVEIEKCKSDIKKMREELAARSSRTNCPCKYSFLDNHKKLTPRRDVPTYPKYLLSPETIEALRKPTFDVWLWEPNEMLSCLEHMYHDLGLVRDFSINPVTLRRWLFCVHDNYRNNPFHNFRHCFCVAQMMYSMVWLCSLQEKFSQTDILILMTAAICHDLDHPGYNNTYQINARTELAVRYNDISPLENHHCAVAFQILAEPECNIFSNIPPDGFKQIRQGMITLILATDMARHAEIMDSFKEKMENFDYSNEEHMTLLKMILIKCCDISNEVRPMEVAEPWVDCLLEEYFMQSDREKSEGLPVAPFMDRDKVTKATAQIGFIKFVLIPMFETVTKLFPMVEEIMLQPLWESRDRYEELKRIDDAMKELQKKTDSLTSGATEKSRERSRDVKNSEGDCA

SMILES: COc1ncc(C)c(-c2ccc3c(c2)[nH]c(=O)c2cnn([C@H]4CCOC4)c23)c1C [Compound A, (S)-7-(2-methoxy-3,5-dimethylpyridin-4-yl)-1-(tetrahydrofuran-3-yl)-1H-pyrazolo[4,3-c]quin olin-4(5H)-one]
- % CSF cGMP increase from vehicle control ([1]; 3.3 mg/kg oral): (90) %
- CSF cGMP conc. ([1]; 3.3 mg/kg oral): 3.694 ± 0.65 nM
- % CSF cGMP increase from vehicle control ([1]; 10 mg/kg oral): (152) %
- CSF cGMP conc. ([1]; 10 mg/kg oral): 4.889 ± 0.538 nM
- sustained CSF cGMP increase from baseline predicted from PK/PD modeling (CSF cGMP; 100 mg administered to steady state): approximately 200%
- CSF cGMP Amax Mean (SD) (CSF cGMP; single oral 50 mg): 367 (92.6) %
- CSF cGMP TAmax Median (CSF cGMP; single oral 50 mg): 7.87 h
- CSF cGMP ΔAUAC(0-30 h) Mean (SD) (CSF cGMP; single oral 50 mg): 117 (51.7) %
- CSF cGMP Amax Mean (SD) (CSF cGMP; single oral 75 mg): 461 (86.3) %
- CSF cGMP TAmax Median (CSF cGMP; single oral 75 mg): 5.87 h
- CSF cGMP ΔAUAC(0-30 h) Mean (SD) (CSF cGMP; single oral 75 mg): 166 (9.61) %
- CSF cGMP Amax Mean (SD) (CSF cGMP; single oral 100 mg): 293 (67.8) %
- CSF cGMP TAmax Median (CSF cGMP; single oral 100 mg): 5.87 h
- CSF cGMP ΔAUAC(0-30 h) Mean (SD) (CSF cGMP; single oral 100 mg): 87.0 (33.9) %
- CSF cGMP Amax Mean (SD) (CSF cGMP; single oral 200 mg): 424 (127) %
- CSF cGMP TAmax Median (CSF cGMP; single oral 200 mg): 5.37 h
- CSF cGMP ΔAUAC(0-30 h) Mean (SD) (CSF cGMP; single oral 200 mg): 176 (89.5) %
- CSF cGMP Amax Mean (SD) (CSF cGMP; single oral 400 mg): 420 (123) %
- CSF cGMP TAmax Median (CSF cGMP; single oral 400 mg): 12.9 h
- CSF cGMP ΔAUAC(0-30 h) Mean (SD) (CSF cGMP; single oral 400 mg): 214 (82.3) %
- Ae(0-96 h) GM [2, 5]: 0.228 mg
- Fe(0-96 h) GM [2, 5]: 0.228%
- Ae(0-96 h) GM [2, 6]: 0.0218 mg
- Fe(0-96 h) GM [2, 6]: 0.218%
- Ae(0-96 h) GM [2, 7]: 0.0476 mg
- Fe(0-96 h) GM [2, 7]: 0.190%
- Ae(0-96 h) GM [2, 8]: 0.104 mg
- Fe(0-96 h) GM [2, 8]: 0.208%
- Ae(0-96 h) GM [2, 9]: 0.295 mg
- Fe(0-96 h) GM [2, 9]: 0.295%
- Ae(0-96 h) GM [2, 10]: 0.177 mg
- Fe(0-96 h) GM [2, 10]: 0.0885%
- Ae(0-96 h) GM [2, 11]: 0.615 mg
- Fe(0-96 h) GM [2, 11]: 0.154%
- Ae(0-96 h) GM [2, 12]: 0.762 mg
- Fe(0-96 h) GM [2, 12]: 0.0953%
- Ae(0-96 h) GM [2, 13]: 1.18 mg
- Fe(0-96 h) GM [2, 13]: 0.0979%
- CL renal ([2]; 10 mg, healthy adults Part A, single oral 10 mg): 0.228 mL/min
- CL renal ([2]; 25 mg, healthy adults Part A, single oral 25 mg): 0.202 mL/min
- CL renal ([2]; 50 mg, healthy adults Part A, single oral 50 mg): 0.268 mL/min
- CL renal ([2]; 100 mg, Elderly subjects Part C, single oral 100 mg): 0.22 mL/min
- CL renal ([2]; 100 mg, healthy adults Part A, single oral 100 mg): 0.37 mL/min
- CL renal ([2]; 200 mg, healthy adults Part A, single oral 200 mg): 0.17 mL/min
- CL renal ([2]; 400 mg, healthy adults Part A, single oral 400 mg): 0.337 mL/min
- CL renal ([2]; 800 mg, healthy adults Part A, single oral 800 mg): 0.212 mL/min
- CL renal ([2]; 1200 mg, healthy adults Part A, single oral 1200 mg): 0.287 mL/min
- upper 90% CI of the ΔΔQTcF [3]: less than 10 ms
- PDE9 inhibitory activity (PDE9): known to have a PDE9 inhibitory activity
- Kp ([4]; CSF and plasma, oral, 50 to 400 mg, read-out: GM ratios of CSF AUC(0-t) to plasma AUC(0-t) across doses): 0.0241 to 0.028
- Kp ([4]; CSF and plasma, oral, 50 to 400 mg, read-out: GM ratios of CSF Cmax to plasma Cmax across doses): 0.02 to 0.0277
- Kp ([4]; CSF and plasma, po, 50 mg, healthy adults Part B, single oral 50 mg, fasted, read-out: CSF: plasma Cmax ratio (expressed as %) GM (% CV)): 0.02
- Kp ([4]; CSF and plasma, po, 75 mg, healthy adults Part B, single oral 75 mg, fasted, from AUC (0-t) or AUC (0-30 h), read-out: CSF: plasma AUC ratio (expressed as %) GM (% CV)): 0.0264
- Kp ([4]; CSF and plasma, po, 75 mg, healthy adults Part B, single oral 75 mg, fasted, read-out: CSF: plasma Cmax ratio (expressed as %) GM (% CV)): 0.0264
- Kp ([4]; CSF and plasma, po, 100 mg, healthy adults Part B, single oral 100 mg, fasted, from AUC (0-t) or AUC (0-30 h), read-out: CSF: plasma AUC ratio (expressed as %) GM (% CV)): 0.0266
- Kp ([4]; CSF and plasma, po, 100 mg, healthy adults Part B, single oral 100 mg, fasted, read-out: CSF: plasma Cmax ratio (expressed as %) GM (% CV)): 0.0194
- Kp ([4]; CSF and plasma, po, 200 mg, healthy adults Part B, single oral 200 mg, fasted, from AUC (0-t) or AUC (0-30 h), read-out: CSF: plasma AUC ratio (expressed as %) GM (% CV)): 0.0238
- Kp ([4]; CSF and plasma, po, 200 mg, healthy adults Part B, single oral 200 mg, fasted, read-out: CSF: plasma Cmax ratio (expressed as %) GM (% CV)): 0.0214
- Kp ([4]; CSF and plasma, po, 400 mg, healthy adults Part B, single oral 400 mg, fasted, from AUC (0-t) or AUC (0-30 h), read-out: CSF: plasma AUC ratio (expressed as %) GM (% CV)): 0.0279
- Kp ([4]; CSF and plasma, po, 400 mg, healthy adults Part B, single oral 400 mg, fasted, read-out: CSF: plasma Cmax ratio (expressed as %) GM (% CV)): 0.0203
- Kp ([4]; CSF, oral, 50 to 400 mg, read-out: mean CSF:plasma ratios (expressed as percentages) of Cmax or AUC(0-t)): 0.02 to 0.03
- Tmax ([4]; CSF, oral, single doses (50 to 400 mg except 50 mg; b332: 100 to 400 mg), read-out: median CSF tmax across doses): 4.37 to 6.87 h
- Tmax ([4]; CSF, healthy adults Part B, single oral 50 mg, fasted, read-out: CSF tmax Median): 11.9 h
- Tmax ([4]; CSF, healthy adults Part B, single oral 75 mg, fasted, read-out: CSF tmax Median): 5.37 h
- Tmax ([4]; CSF, healthy adults Part B, single oral 100 mg, fasted, read-out: CSF tmax Median): 6.87 h
- Tmax ([4]; CSF, healthy adults Part B, single oral 200 mg, fasted, read-out: CSF tmax Median): 4.37 h
- Tmax ([4]; CSF, healthy adults Part B, single oral 400 mg, fasted, read-out: CSF tmax Median): 5.37 h
